# Experimental data taken from US20250025460A1, “USE OF A COMBINATION OF LEVOSIMENDAN AND AN SGLT-2 INHIBITOR TO TREAT HEART FAILURE” (Tenax Therapeutics, Inc., priority 2021, published 2025).
# Key:
# [1] = in vivo; cited from earlier work
# [2] = follow-ups two weeks after treatment with levosimendan; cited from earlier work
# [3] = tested on: whole cardiomyocytes and isolated contractile apparatus preparations; details: cited from earlier work
# [4] = tested on: phosphodiesterase-3 (PDE3); details: cited from earlier work
# PDE4 = details: cited from earlier work
# heart failure patients = details: cited from earlier work
# PH-HFpEF patients = assay: HELP Study: 6-minute walk distance; format: in vivo, human; details: PH-HFpEF patients of the HELP Study, on average, levosimendan alone
# Method: 6 MWT is the abbreviation for six-minute walk test. 6 MWT is a performance-based test used to measure functional exercise capacity. The 6 MWT measures the distance an individual is able to walk over a total of 6 minutes at a constant and normal pace. (Vandoni et al. 2018)
# (§1) During the HELP Study, as described in PCT International Application Publication No. WO 2021/126884, the entire contents of which are incorporated by reference, Patient 019-002 was administered empagliflozin shortly after beginning levosimendan therapy.
# PH-HFpEF patient = assay: HELP Study: rest and exercise right heart catheterization after 24-hour i.v. levosimendan, Patient 019-002; format: in vivo, human; details: single 24-hour open label lead-in infusion
# Method: as §1
# Specifically, Patient 019-002 had established PH-HFpEF and was initially enrolled into the HELP Trial. The diagnosis of PH-HFpEF was confirmed by rest and exercise right heart catheterization. […] The PCWP of 35 mmHg at rest increased with exercise to 55 mmHg at baseline. […] Thus, levosimendan produced a 40% fall in resting PCWP and a 33% fall in exercise PCWP. In addition, at baseline the CVP was 18 mmHg and increased to 30 mmHg with exercise. Following the 24 hours of i.v. levosimendan the CVP fell to 12 mmHg at rest and to 21 mmHg with exercise. Thus, levosimendan produced a 33% fall in resting CVP, and a 30% fall in CVP with exercise. Accordingly, the response of Patient 019-002 to levosimendan treatment was typical of other patients in the study in terms of improvements to their hemodynamic profile (FIG. 1).
# [5] = cited from earlier work
smiles,measurement,setting,value
"C[C@@H]1CC(=O)NN=C1c1ccc(N)cc1 [OR-1855, (R)-6-(4-aminophenyl)-5-methyl-4,5-dihydropyridazin-3(2H)-one]",hemodynamic and pharmacologic properties / activity compared with levosimendan,[1],limited activity
same,concentrations of metabolite at follow-up,[2],detectable
"CC(=O)Nc1ccc(C2=NNC(=O)C[C@H]2C)cc1 [OR-1896, (R)-N-(4-(4-methyl-6-oxo-1,4,5,6-tetrahydropyridazin-3-yl)phenyl) acetamide]","inotropic effects, potency compared with levosimendan",[3],equipotent
same,hemodynamic and pharmacologic properties / activity compared with levosimendan,[1],similar
same,potency in the inhibition of PDE3 compared with levosimendan,[4],profoundly less potent
same,potency in the inhibition of PDE4 compared with levosimendan,PDE4,profoundly less potent
same,concentrations of metabolite at follow-up,[2],detectable
OC[C@H]1O[C@@H](c2ccc(Cl)c(Cc3ccc(O[C@H]4CCOC4)cc3)c2)[C@H](O)[C@@H](O)[C@@H]1O [empagliflozin],6-minute walk distance or quality of life,"heart failure patients; EMBRACE HF, PH-HFpEF patients, empagliflozin alone",did not demonstrate a meaningful difference
same,exercise capacity as measured by change in six-minute walk distance,"heart failure patients; EMPERIAL-Preserved and EMPERIAL-Reduced trials, empagliflozin alone",neither of these trials showed an improvement
same,exercise capacity as measured by a difference in 6 MWD,"heart failure patients; HFpEF, HFrEF or PH-HFpEF patients, empagliflozin alone (EMPERIAL-Preserved, EMPERIAL-Reduced, EMBRACE HF)",did not demonstrate a material change
C[C@@H]1CC(=O)NN=C1c1ccc(NN=C(C#N)C#N)cc1 [levosimendan],improvement of 6-minute walk distance,PH-HFpEF patients,approximately 29 m
same,"change in pulmonary capillary wedge pressure (PCWP), FIG. 1",PH-HFpEF patient,decrease
same,plasma concentration profile of the levosimendan metabolite OR-1896,[5]; subcutaneous compared with intravenous administration of levosimendan,similar
same,plasma concentrations of levosimendan,[5]; subcutaneous compared with intravenous administration,lower plasma concentrations
